Laboratory results as given in ChEMBL document CHEMBL1150185, “Antineoplastic agents, 195. Isolation and structure of aceratioside from Aceratium megalospermum” (1990).
In brackets after ≈: the same amount, converted by molar mass.

System: P388
Test: Cytostatic activity against mouse P388 cells
Assay type: functional
Details: read-out: ED50 (the source's name)

Compound: O=C(O)[C@H]1CCc2c(cc(O)cc2O[C@@H]2O[C@H](CO)[C@@H](O)[C@H](O)[C@H]2O)C1 [ACERATIOSIDE]
- EC50: 9 µg/mL (≈ 24.3 µM)
